In patent US11986647B2, “Treating autoinflammatory and mitochondrial diseases using an alternating electric field” (Novocure GmbH, priority 2018, dated 2024):
Several values for one entry are separate records, joined by “and”; a condition that tells them apart may be missing. Equal entries are not always repeated.

Experiments:
brain tumor cell lines = test: IC50 determination through drug-response curves; format: cell-based; conditions: range across the brain tumor cell lines
Experimental: (§1) Cells were treated with TMZ (Sigma-Aldrich), Paclitaxel (Sigma-Aldrich) and Mebendazole (Sigma-Aldrich) as a monotherapy or in combination with TTFields. Each of the drugs were administered at their IC50 (high dose) or 10% IC50 (low dose), with the IC50s being determined through drug-response curves.
(§2) PrestoBlue™ was added to each sample at a time-point at a 1:10 dilution. Samples were incubated at 37° C. for 30 minutes. 100 μ1 (triplicate) of the PrestoBlue solution was transferred to a black-bottomed 96-well plate and fluorescence was analyzed via UV-Vis Spectroscopy at excitation/emission wavelengths at 560/590 nm with the FLUOstar Omega (BMG Labtech).

SF188 cells = conditions: human, 72 h
Experimental: as §1
(§3) TTFields were applied using the Inovitro™ system (Novocure, Haifa). The system consists of two pairs of perpendicular transducer arrays on the outer walls of a ceramic Petri dish. A sinusoidal waveform generator was attached to the transducer arrays to produce alternating electric fields at frequencies between 100-400 kHz and 1.75V/cm intensity. The electric fields alternated orientation of 90° every second. The temperature was measured to be 37° C. inside the dishes by 2 thermistors attached to the ceramic walls.
as §2

UW228-3 cells = conditions: human, 72 h
Experimental: as §1, §3, §2

BXD-1425EPN cells = conditions: human, 72 h
Experimental: as §1, §3, §2

IC50 (brain tumor cell lines)	Structure (SMILES)	reduction of cell viability (SF188 cells) [%]	reduction of cell viability (UW228-3 cells) [%]	reduction of cell viability (BXD-1425EPN cells) [%]
30 to 1200 nM and 20 to 1200 nM	COC(=O)Nc1nc2ccc(C(=O)c3ccccc3)cc2[nH]1 [Mebendazole]	39	28	30
0.36 to 4.6 nM and 0.4 to 4.6 nM	CC(=O)O[C@H]1C(=O)[C@@]2(C)[C@H]([C@H](OC(=O)c3ccccc3)[C@]3(O)C[C@H](OC(=O)[C@H](O)[C@@H](NC(=O)c4ccccc4)c4ccccc4)C(C)=C1C3(C)C)[C@]1(OC(C)=O)CO[C@@H]1C[C@@H]2O [Paclitaxel]	30	32	23
